Patent US20260176289A1, “SMALL MOLECULE INHIBITORS OF KRAS PROTEINS” (Merck Sharp & Dohme LLC, priority 2022, published 2026)
pIC50: −log10 of the molar value.

What was measured:
Format in all cases: cell-based
MKN-1 cells = assay: Cellular phospho-ERK assay, MKN-1 cells (amplified wild-type KRAS); conditions: Homo sapiens, amplified wild-type KRAS, 2 hours, read-out: MKN1 pERK IC50
Summary of the method: (§1)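 Cells were seeded overnight, then treated 2 h at 37° C with compound in a 10-point, 1:3 titration from 30 μM top final concentration. Lysates were assayed by AlphaLISA SureFire Ultra for p-ERK and total ERK. IC50 came from a 4-parameter logistic fit of the p-ERK/total ERK ratio.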

PANC08.13 cells = assay: Cellular phospho-ERK assay, PANC08.13 cells (homozygous KRAS-G12D); conditions: Homo sapiens, PANC-08-13, KRAS-G12D, 2 hours, read-out: PANC-08.13 pERK IC50
Summary of the method: as §1

AsPC-1 cells = assay: Cellular phospho-ERK assay, AsPC-1 cells (homozygous KRAS-G12D); conditions: Homo sapiens, ASPC1, 2 h, KRAS-G12D, 2 hours, read-out: AsPC1 pERK IC50
Summary of the method: as §1

C#Cc1c(F)ccc2cc(O)cc(-c3nccc4c5c(N6CCOC[C@@](C)(O)C6)nc(OC[C@@]67CCCN6C[C@H](F)C7)nc5n(C)c34)c12 [Ex-18, (S)-4-(8-(8-ethynyl-7-fluoro-3-hydroxynaphthalen-1-yl)-2-(((2R,7aS)-2-fluorotetrahydro-1H-pyrrolizin-7a(5H)-yl)methoxy)-9-methyl-9H-pyrido[4′,3′:4,5]pyrrolo[2,3-d]pyrimidin-4-yl)-6-methyl-1,4-oxazepan-6-ol]
pIC50 (MKN-1 cells): 8.12 | pIC50 (PANC08.13 cells): 8.34 | pIC50 (AsPC-1 cells): 7.53
